The record followed here is patent publication US11090304B2 (Amgen Inc., priority 2018, dated 2021).

The target of the assay is GDP-bound KRAS protein (aa 1-169), containing both G12C and C118A amino acid substitutions (Homo sapiens, UniProt P01116, C118A/G12C). Nature of the assay: Coupled nucleotide exchange assay (SOS-mediated, AlphaScreen). Type of assay: biochemical. The settings on record: 5 min compound pre-incubation.
Chain of GDP-bound KRAS protein (aa 1-169), containing both G12C and C118A amino acid substitutions (P01116 1-169 isoform P01116-2 G12C/C118A): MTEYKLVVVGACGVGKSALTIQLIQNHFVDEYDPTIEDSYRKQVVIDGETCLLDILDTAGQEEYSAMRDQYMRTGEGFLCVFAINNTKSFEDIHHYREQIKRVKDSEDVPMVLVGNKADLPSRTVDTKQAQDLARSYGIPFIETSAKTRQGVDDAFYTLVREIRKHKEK
In the case of `C=CC(=O)N1CCN(c2nc(=O)n(-c3c(CC)cccc3CC)c3nc(N4CC[C@H](C)C4)c(Cl)cc23)[C@@H](C)C1` [Example 66-5, 6-chloro-1-(2,6-diethylphenyl)-4-((2S)-2-methyl-4-(2-propenoyl)-1-piperazinyl)-7-((3S)-3-methyl-1-pyrrolidinyl)pyrido[2,3-d]pyrimidin-2(1H)-one], the “Coupled exchange IC50 (5 min)” value was 21.2 | nda μM.

Regarding `C=CC(=O)N1CCN(c2nc(=O)n(-c3c(CC)cccc3CC)c3nc(N4CC[C@H](F)C4)c(Cl)cc23)[C@@H](C)C1` [Example 66-6, 6-chloro-1-(2,6-diethylphenyl)-7-((3S)-3-fluoro-1-pyrrolidinyl)-4-((2S)-2-methyl-4-(2-propenoyl)-1-piperazinyl)pyrido[2,3-d]pyrimidin-2(1H)-one], the “Coupled exchange IC50 (5 min)” value was 14.9 | nda μM.

In the case of `C=CC(=O)N1CCN(c2nc(=O)n(-c3c(CC)cccc3CC)c3nc(N4CC[C@@H](F)C4)c(Cl)cc23)[C@@H](C)C1` [Example 66-7, 6-chloro-1-(2,6-diethylphenyl)-7-((3R)-3-fluoro-1-pyrrolidinyl)-4-((2S)-2-methyl-4-(2-propenoyl)-1-piperazinyl)pyrido[2,3-d]pyrimidin-2(1H)-one], the “Coupled exchange IC50 (5 min)” value was 88 | nda μM.

Consider `C=CC(=O)N1CCN(c2nc(=O)n(-c3c(CC)cccc3CC)c3nc(N4CCC[C@@H]4CO)c(Cl)cc23)[C@@H](C)C1` [Example 66-9, 6-chloro-1-(2,6-diethylphenyl)-7-((2R)-2-(hydroxymethyl)-1-pyrrolidinyl)-4-((2S)-2-methyl-4-(2-propenoyl)-1-piperazinyl)pyrido[2,3-d]pyrimidin-2(1H)-one], for which the “Coupled exchange IC50 (5 min)” value is 99.5 | nda μM.

For the molecule `C=CC(=O)N1CCN(c2nc(=O)n(-c3c(CC)cccc3CC)c3nc(N4CCC(C)C4)c(Cl)cc23)[C@@H](C)C1` (stereo partly drawn) [Example 66-10, 6-chloro-1-(2,6-diethylphenyl)-4-((2S)-2-methyl-4-(2-propenoyl)-1-piperazinyl)-7-(3-methyl-1-pyrrolidinyl)pyrido[2,3-d]pyrimidin-2(1H)-one], the “Coupled exchange IC50 (5 min)” value was 26.4 | nda μM.

`C=CC(=O)N1CCN(c2nc(=O)n(-c3c(CC)cccc3CC)c3nc(N4CCC(CC)C4)c(Cl)cc23)[C@@H](C)C1` (stereo partly drawn) [Example 66-11, 6-chloro-1-(2,6-diethylphenyl)-7-(3-ethyl-1-pyrrolidinyl)-4-((2S)-2-methyl-4-(2-propenoyl)-1-piperazinyl)pyrido[2,3-d]pyrimidin-2(1H)-one]: the “Coupled exchange IC50 (5 min)” value is reported as 29 | nda μM.

With `C=CC(=O)N1CCN(c2nc(=O)n(-c3c(CC)cccc3CC)c3nc(N4CCC(CC(C)C)C4)c(Cl)cc23)[C@@H](C)C1` (stereo partly drawn) [Example 66-12, 6-chloro-1-(2,6-diethylphenyl)-4-((2S)-2-methyl-4-(2-propenoyl)-1-piperazinyl)-7-(3-(2-methylpropyl)-1-pyrrolidinyl)pyrido[2,3-d]pyrimidin-2(1H)-one], the “Coupled exchange IC50 (5 min)” value is 65 | nda μM.

For `C=CC(=O)N1CCN(c2nc(=O)n(-c3c(CC)cccc3CC)c3nc(N4CCC(F)(F)C4)c(Cl)cc23)[C@@H](C)C1` [Example 66-14, 6-chloro-1-(2,6-diethylphenyl)-7-(3,3-difluoro-1-pyrrolidinyl)-4-((2S)-2-methyl-4-(2-propenoyl)-1-piperazinyl)pyrido[2,3-d]pyrimidin-2(1H)-one], the “Coupled exchange IC50 (5 min)” value was 5.51 | nda μM.

As to `C=CC(=O)N1CCN(c2nc(=O)n(-c3c(CC)cccc3CC)c3nc(N4CCOC(CC)C4)c(Cl)cc23)[C@@H](C)C1` (stereo partly drawn) [Example 66-15, 6-chloro-1-(2,6-diethylphenyl)-7-(2-ethyl-4-morpholinyl)-4-((2S)-2-methyl-4-(2-propenoyl)-1-piperazinyl)pyrido[2,3-d]pyrimidin-2(1H)-one], the “Coupled exchange IC50 (5 min)” value is 89.7 | nda μM.

As to `C=CC(=O)N1CCN(c2nc(=O)n(-c3c(CC)cccc3CC)c3nc(N4CCOC5(CCCC5)C4)c(Cl)cc23)[C@@H](C)C1` [Example 66-17, 6-chloro-1-(2,6-diethylphenyl)-4-((2S)-2-methyl-4-(2-propenoyl)-1-piperazinyl)-7-(6-oxa-9-azaspiro[4.5]decan-9-yl)pyrido[2,3-d]pyrimidin-2(1H)-one], the “Coupled exchange IC50 (5 min)” value is listed as 75.5 | nda μM.

For the molecule `C=CC(=O)N1CCN(c2nc(=O)n(-c3c(CC)cccc3CC)c3nc(N4CCOC(C(C)C)C4)c(Cl)cc23)[C@@H](C)C1` (stereo partly drawn) [Example 66-18, 6-chloro-1-(2,6-diethylphenyl)-4-((2S)-2-methyl-4-(2-propenoyl)-1-piperazinyl)-7-(2-(2-propanyl)-4-morpholinyl)pyrido[2,3-d]pyrimidin-2(1H)-one], the “Coupled exchange IC50 (5 min)” value was 76.7 | nda μM.

As for `C=CC(=O)N1CCN(c2nc(=O)n(-c3c(CC)cccc3CC)c3nc(N4CCC(CC)(CC)C4)c(Cl)cc23)[C@@H](C)C1` [Example 66-20, 6-chloro-1-(2,6-diethylphenyl)-7-(3,3-diethyl-1-pyrrolidinyl)-4-((2S)-2-methyl-4-(2-propenoyl)-1-piperazinyl)pyrido[2,3-d]pyrimidin-2(1H)-one], the “Coupled exchange IC50 (5 min)” value is reported as 28.2 | nda μM.

Turning to `C=CC(=O)N1CCN(c2nc(=O)n(-c3c(CC)cccc3CC)c3nc(N4CCC(C(C)(C)C)C4)c(Cl)cc23)[C@@H](C)C1` (stereo partly shown) [Example 66-21], the “Coupled exchange IC50 (5 min)” value was 33 | nda μM.

Regarding `C=CC(=O)N1CCN(c2nc(=O)n(-c3c(CC)cccc3CC)c3nc(N4CC[C@H](OC)C4)c(Cl)cc23)[C@@H](C)C1` [Example 66-22, 6-chloro-1-(2,6-diethylphenyl)-7-((3S)-3-methoxy-1-pyrrolidinyl)-4-((2S)-2-methyl-4-(2-propenoyl)-1-piperazinyl)pyrido[2,3-d]pyrimidin-2(1H)-one], the “Coupled exchange IC50 (5 min)” value is listed as 40.7 | nda μM.

On to `C=CC(=O)N1CCN(c2nc(=O)n(-c3c(CC)cccc3CC)c3nc(N4CCC[C@@H]4C#N)c(Cl)cc23)[C@@H](C)C1` [Example 66-23, (2R)-1-(6-chloro-1-(2,6-diethylphenyl)-4-((2S)-2-methyl-4-(2-propenoyl)-1-piperazinyl)-2-oxo-1,2-dihydropyrido[2,3-d]pyrimidin-7-yl)-2-pyrrolidinecarbonitrile], for which the “Coupled exchange IC50 (5 min)” value is 160 | nda μM.

Take `C=CC(=O)N1CCN(c2nc(=O)n(-c3c(CC)cccc3CC)c3nc(N4CCOC(C5CC5)C4)c(Cl)cc23)[C@@H](C)C1` (stereo partly drawn) [Example 66-25, 6-chloro-7-(2-cyclopropyl-4-morpholinyl)-1-(2,6-diethylphenyl)-4-((2S)-2-methyl-4-(2-propenoyl)-1-piperazinyl)pyrido[2,3-d]pyrimidin-2(1H)-one]: the “Coupled exchange IC50 (5 min)” value was 95 | nda μM.

In the case of `C=CC(=O)N1CCN(c2nc(=O)n(-c3c(CC)cccc3CC)c3nc(N4CCC[C@H](C)C4)c(Cl)cc23)[C@@H](C)C1` [Example 66-28, 6-chloro-1-(2,6-diethylphenyl)-7-((3S)-3-methyl-1-piperindinyl)-4-((2S)-2-methyl-4-(2-propenoyl)-1-piperazinyl)pyrido[2,3-d]pyrimidin-2(1H)-one], the “Coupled exchange IC50 (5 min)” value is recorded as 16.6 | nda μM.

As to `C=CC(=O)N1CCN(c2nc(=O)n(-c3c(CC)cccc3CC)c3nc(N4CCC(C)(C)CC4)c(Cl)cc23)[C@@H](C)C1` [Example 66-29, 6-chloro-1-(2,6-diethylphenyl)-7-(4,4-dimethyl-1-piperindinyl)-4-((2S)-2-methyl-4-(2-propenoyl)-1-piperazinyl)pyrido[2,3-d]pyrimidin-2(1H)-one], the “Coupled exchange IC50 (5 min)” value was 25.3 | nda μM.

As to `C=CC(=O)N1CCN(c2nc(=O)n(-c3c(CC)cccc3CC)c3nc(N4CCOC[C@@H]4C)c(Cl)cc23)[C@@H](C)C1` [Example 66-30, 6-chloro-1-(2,6-diethylphenyl)-7-((3S)-3-methyl-4-morpholinyl)-4-((2S)-2-methyl-4-(2-propenoyl)-1-piperazinyl)pyrido[2,3-d]pyrimidin-2(1H)-one], the “Coupled exchange IC50 (5 min)” value is listed as 16.05 | nda μM.

As for `C=CC(=O)N1CCN(c2nc(=O)n(-c3c(CC)cccc3CC)c3nc(N4C[C@@H]5C[C@H]4CO5)c(Cl)cc23)[C@@H](C)C1` [Example 66-31, 6-chloro-1-(2,6-diethylphenyl)-4-((2S)-2-methyl-4-(2-propenoyl)-1-piperazinyl)-7-((1S,4S)-2-oxa-5-azabicyclo[2.2.1]heptan-5-yl)pyrido[2,3-d]pyrimidin-2(1H)-one], the “Coupled exchange IC50 (5 min)” value is reported as 84.25 | nda μM.

Turning to `C=CC(=O)N1CCN(c2nc(=O)n(-c3c(CC)cccc3CC)c3nc(N4CCOC[C@H]4C)c(Cl)cc23)[C@@H](C)C1` [Example 66-33, 6-chloro-1-(2,6-diethylphenyl)-7-((3R)-3-methyl-4-morpholinyl)-4-((2S)-2-methyl-4-(2-propenoyl)-1-piperazinyl)pyrido[2,3-d]pyrimidin-2(1H)-one], the “Coupled exchange IC50 (5 min)” value is given as 15.9 | nda μM.

Take `C=CC(=O)N1CCN(c2nc(=O)n(-c3ccccc3C(C)C)c3nc(-c4ccncc4F)c(Cl)cc23)[C@@H](C)C1` [Example 67-1, 6-Chloro-7-(3-fluoro-4-pyridinyl)-4-((2S)-2-methyl-4-(2-propenoyl)-1-piperazinyl)-1-(2-(2-propanyl)phenyl)pyrido[2,3-d]pyrimidin-2(1H)-one]: the “Coupled exchange IC50 (5 min)” value is listed as 3.51 | nda μM.

Consider `C=CC(=O)N1CCN(c2nc(=O)n(-c3ccccc3C(C)C)c3nc(-c4cc(C(F)(F)F)nn4C)c(Cl)cc23)[C@@H](C)C1` [Example 67-2, 6-chloro-4-((2S)-2-methyl-4-(2-propenoyl)-1-piperazinyl)-7-(1-methyl-3-(trifluoromethyl)-1H-pyrazol-5-yl)-1-(2-(2-propanyl)phenyl)pyrido[2,3-d]pyrimidin-2(1H)-one], for which the “Coupled exchange IC50 (5 min)” value is on record as 6.45 | nda μM.

For `C=CC(=O)N1CCN(c2nc(=O)n(-c3ccccc3C(C)C)c3nc(-c4c(C)cnn4C)c(Cl)cc23)[C@@H](C)C1` [Example 67-3, 6-chloro-7-(1,4-dimethyl-1H-pyrazol-5-yl)-4-((2S)-2-methyl-4-(2-propenoyl)-1-piperazinyl)-1-(2-(2-propanyl)phenyl)pyrido[2,3-d]pyrimidin-2(1H)-one], the “Coupled exchange IC50 (5 min)” value is recorded as 2.87 | nda μM.

With `C=CC(=O)N1CCN(c2nc(=O)n(-c3ccccc3C(C)C)c3nc(N4CCCCC4C)c(Cl)cc23)[C@@H](C)C1` (stereo partly shown) [Example 69-5], the “Coupled exchange IC50 (5 min)” value was 5.64 | nda μM.
